How the values were obtained:
[1] = molecular target: T1, HSPB1 (Homo sapiens, UniProt P04792); experiment: SPR (Reichert 4SPR, immobilised HSPB1); format: binding; set-up: protein immobilised by EDC/NHS on dextran SPR chip; details: read-out: affinity
[2] = molecular target: T1, HSPB1; experiment: DARTS with Western blot (protection from protease); format: biochemical; set-up: endogenous protein in lysate, detected by Western blot after protease digestion (DARTS); details: cell lysate, room temperature, 20 min with luteolin, protease digestion 15 min

T1 sequence (P04792 whole entry): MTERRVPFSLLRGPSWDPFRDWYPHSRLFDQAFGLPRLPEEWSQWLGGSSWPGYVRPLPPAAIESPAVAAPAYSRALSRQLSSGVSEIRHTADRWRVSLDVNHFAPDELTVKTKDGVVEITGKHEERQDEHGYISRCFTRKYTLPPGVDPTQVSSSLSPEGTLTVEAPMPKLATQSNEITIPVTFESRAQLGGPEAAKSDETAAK

- Kd [1]: 23.7 µM
Structure (SMILES): O=c1cc(-c2ccc(O)c(O)c2)oc2cc(O)cc(O)c12 [luteolin]
- DARTS with Western blot (protection from protease) [2]: addition of luteolin under the same protease concentration conditions reduced the hydrolysis of HSPB1
